Assay results as given in patent publication US20120022078A1, “ARYL INDOLE DERIVATIVES” (MSD K.K., priority 2010, published 2012).

Molecular target: T1, human QRFP receptor (GPR103) (Homo sapiens, UniProt Q96P65)
T1 construct: expressed in transfected cells; host or cells: NFAT β-Lactamase CHO-K1 host cells (Aurora); membrane specimen
T1 sequence (Q96P65 1-431): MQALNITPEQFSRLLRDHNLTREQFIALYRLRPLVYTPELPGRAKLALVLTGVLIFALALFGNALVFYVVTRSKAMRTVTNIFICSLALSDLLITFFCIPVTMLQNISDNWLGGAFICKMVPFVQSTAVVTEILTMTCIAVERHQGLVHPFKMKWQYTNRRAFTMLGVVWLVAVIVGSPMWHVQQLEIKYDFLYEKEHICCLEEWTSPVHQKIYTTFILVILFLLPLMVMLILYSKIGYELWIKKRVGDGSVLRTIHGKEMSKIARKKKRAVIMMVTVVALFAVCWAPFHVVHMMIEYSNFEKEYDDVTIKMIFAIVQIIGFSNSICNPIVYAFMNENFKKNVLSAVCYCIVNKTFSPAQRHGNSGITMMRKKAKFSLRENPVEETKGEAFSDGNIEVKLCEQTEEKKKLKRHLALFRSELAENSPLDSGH
Assay: QRFP43 binding inhibition test ([125I]QRFP43, membranes of GPR103-expressing CHO-K1 cells)
Settings: membrane specimen from QRFP receptor (GPR103) expressing cells, 25° C., 1 hour, 20,000 cpm [125I]QRFP43; read-out: IC50 (50% inhibition concentration for the specific [125I] QRFP43 binding)
Text: The cDNA sequence [Accession No. NM_198179] that codes for human QRFP receptor (GPR103) was cloned into an expression vector pEF1V5-HisB (Invitrogen). The expression vector so prepared was transfected into NFAT β-Lactamase CHO-K1 host cells (Aurora) to obtain QRFP receptor (GPR103) expressing cells, using the cationic lipid method [see Proceedings of the National Academy of Sciences of the United States of America, Vol. 84, p. 7413 (1987)].
The membrane specimen prepared from the QRFP receptor (GPR103) expressing cells was incubated at 25° C. for 1 hour with a test compound and 20,000 cpm [^125I ] QRFP43 (PerkinElmer, Inc.) in an assay buffer (50 mM Tris-HCl, 1 mM EDTA, and 0.1% BSA, pH 7.4), followed by filtration using a glass filter GF/C. After washing with a 50 mM Tris-HCl (containing 2 mM EDTA, 10 mM MgCl2, and 0.04% Tween-20) buffer at pH 7.4, the radioactivity on the glass filter was determined using a gamma counter. Non-specific binding was measured in the presence of 1 μM peptide QRFP43, and 50% inhibition concentration (IC50 value) of the test compound for the specific [^125I] QRFP43 binding was determined [see Endocrinology, Vol. 131, p. 2090 (1992)].

SMILES | IC50 [nM]
CN1CCN(Cc2cncc(-c3cc4ccccc4n3C)c2)CC1 [Example 5, 1-Methyl-2-{5-[(4-methylpiperazin-1-yl)methyl]pyridin-3-yl}-1H-indole] | 111
CN1CCN(Cc2cnc(-c3cc4ccccc4n3C)s2)CC1 [Example 1, 1-Methyl-2-{5-[(4-methylpiperazin-1-yl)methyl]-1,3-thiazol-2-yl}-1H-indole] | 49.8
CN1CCN(Cc2cnc(F)c(-c3cc4ccccc4n3C)c2)CC1 [Example 4] | 52.5
CN1CCN(Cc2ccc(F)c(-c3cc4ccccc4n3C)c2)CC1 [Example 3, 2-{2-Fluoro-5-[(4-methylpiperazin-1-yl)methyl]phenyl}-1-methyl-1H-indole] | 48.3
CN1CCN(Cc2cc(-c3cc4ccccc4n3C)ncc2F)CC1 [Example 2] | 33.1
